Data published in patent US8741897B2, “Glucocorticoid mimetics, methods of making them, pharmaceutical compositions and uses thereof” (Boehringer Ingelheim Pharmaceuticals Inc., priority 2003, dated 2014).

System: glucocorticoid receptor function
Assay: one or more of the above assays (GR binding and glucocorticoid receptor cell assays: aromatase, IL-6, TAT, MMTV-Luc, IL-8, ICAM-Luc)
Assay type: cell-based
Details: assay not specified per compound

Structure (SMILES)	activity as agonists of the glucocorticoid receptor function in one or more of the above assays
COc1ccc(F)cc1C(C)(C)CC(O)(Cc1[nH]c2ccncc2c1Cl)C(F)(F)F (stereo not shown) [2-(3-Chloro-1H-pyrrolo[3,2-c]pyridin-2-ylmethyl)-1,1,1-trifluoro-4-(5-fluoro-2-methoxyphenyl)-4-methylpentan-2-ol]	potent agonists
CN(C)c1cc2cc(CC(O)(CC(C)(C)c3ccccc3)C(F)(F)F)[nH]c2cn1 (stereo not shown) [2-(5-Dimethylamino-1H-pyrrolo[2,3-c]pyridin-2-ylmethyl)-1,1,1-trifluoro-4-methyl-4-phenylpentan-2-ol]	potent agonists
Cc1nccc2[nH]c(CC(O)(CC(C)(C)c3cc(-c4ccsc4)ccc3O)C(F)(F)F)cc12 (stereo not shown) [4-Thiophen-3-yl-2-[4,4,4-trifluoro-3-hydroxy-1,1-dimethyl-3-(4-methyl-1H-pyrrolo[3,2-c]pyridin-2-ylmethyl)butyl]phenol]	potent agonists
CC(C)(CC(O)(Cc1cc2cc(-c3ccccn3)ccc2[nH]1)C(F)(F)F)c1cc(Cl)cc2c1OCC2 (stereo not shown) [4-(5-Chloro-2,3-dihydrobenzofuran-7-yl)-1,1,1-trifluoro-4-methyl-2-(5-pyridin-2-yl-1H-indol-2-ylmethyl)pentan-2-ol]	potent agonists
CCN(C)c1cc2cc(CC(O)(CC(C)(C)c3cc(F)ccc3OC)C(F)(F)F)[nH]c2cn1 (stereo not shown) [2-[5-(Ethylmethylamino)-1H-pyrrolo[2,3-c]pyridin-2-ylmethyl]-1,1,1-trifluoro-4-(5-fluoro-2-methoxyphenyl)-4-methylpentan-2-ol]	potent agonists
CC(C)C(O)(Cc1cc2cnccc2[nH]1)CC(C)(C)c1cc(Cl)cc2c1OCC2 (stereo not shown) [5-(5-Chloro-2,3-dihydrobenzofuran-7-yl)-2,5-dimethyl-3-(1H-pyrrolo[3,2-c]pyridin-2-ylmethyl)hexan-3-ol]	agonists
Cc1ccc(F)cc1C(C)(C)CC(O)(Cn1ccc2c1CCCC2=O)C(F)(F)F (stereo not shown) [1-[4-(5-Fluoro-2-methylphenyl)-2-hydroxy-4-methyl-2-trifluoromethylpentyl]-1,5,6,7-tetrahydroindol-4-one]	agonists
CC(C)(CC(O)(Cc1cc2cc(Cl)ncc2[nH]1)C(F)(F)F)c1cc(F)ccc1O (stereo not shown) [2-[3-(5-Chloro-1H-pyrrolo[2,3-c]pyridin-2-ylmethyl)-4,4,4-trifluoro-3-hydroxy-1,1-dimethylbutyl]-4-fluorophenol]	potent agonists
CC(C)(CC(O)(Cc1cc2nc(-c3ccccc3)ncc2[nH]1)C(F)(F)F)c1ccccc1 (stereo not shown) [1,1,1-Trifluoro-4-methyl-4-phenyl-2-(2-phenyl-5H-pyrrolo[3,2-d]pyrimidin-6-ylmethyl)pentan-2-ol]	potent agonists
CC(C)(CC(O)(Cc1cc2ccncc2[nH]1)C1CC1)c1cc(Cl)cc2c1OCC2 (stereo not shown) [4-(5-Chloro-2,3-dihydrobenzofuran-7-yl)-2-cyclopropyl-4-methyl-1-(1H-pyrrolo[2,3-c]pyridin-2-yl)pentan-2-ol]	agonists
COc1cc(F)ccc1C(C)(C)CC(O)(Cc1[nH]c2cnccc2c1C)C(F)(F)F (stereo not shown) [1,1,1-Trifluoro-4-(4-fluoro-2-methoxyphenyl)-4-methyl-2-(3-methyl-1H-pyrrolo[2,3-c]pyridin-2-ylmethyl)pentan-2-ol]	potent agonists
CC(C)(CC(O)(Cc1cc2ccncc2[nH]1)C(F)(F)F)c1cccc(CN2CCOCC2)c1 (stereo not shown) [1,1,1-Trifluoro-4-methyl-4-(3-morpholin-4-ylmethylphenyl)-2-(1H-pyrrolo[2,3-c]pyridin-2-ylmethyl)pentan-2-ol]	potent agonists
CC(C)Oc1cc2cc(CC(O)(CC(C)(C)c3ccccc3)C(F)(F)F)[nH]c2cn1 (stereo not shown) [1,1,1-Trifluoro-2-(5-isopropoxy-1H-pyrrolo[2,3-c]pyridin-2-ylmethyl)-4-methyl-4-phenylpentan-2-ol]	potent agonists
Cc1ccc(F)c2[nH]c(CC(O)(CC(C)(C)c3cc(S(C)(=O)=O)cc4c3OCC4)C(F)(F)F)cc12 (stereo not shown) [1,1,1-Trifluoro-2-(7-fluoro-4-methyl-1H-indol-2-ylmethyl)-4-(5-methanesulfonyl-2,3-dihydrobenzofuran-7-yl)-4-methylpentan-2-ol]	potent agonists
COc1ccc(F)cc1C(C)(C)CC(O)(Cc1cc2ccncc2[nH]1)C(F)F (stereo not shown) [1,1-Difluoro-4-(5-fluoro-2-methoxyphenyl)-4-methyl-2-(1H-pyrrolo[2,3-c]pyridin-2-ylmethyl)pentan-2-ol]	agonists
COc1ccc(-c2cccnc2)cc1C(C)(C)CC(O)(Cc1cc2ccncc2[nH]1)C(F)(F)F (stereo not shown) [1,1,1-Trifluoro-4-(2-methoxy-5-pyridin-3-ylphenyl)-4-methyl-2-(1H-pyrrolo[2,3-c]pyridin-2-ylmethyl)pentan-2-ol]	potent agonists

Structure (SMILES)	activity as agonists of the glucocorticoid receptor function in one or more of the above assays
Cc1ccc(F)cc1C(C)(C)CC(O)(Cc1cc2ccncc2[nH]1)C(C)C (stereo not shown) [5-(5-Fluoro-2-methylphenyl)-2,5-dimethyl-3-(1H-pyrrolo[2,3-c]pyridin-2-ylmethyl)hexan-3-ol]	agonists
COc1ccc(-c2ccccc2)cc1C(C)(C)CC(O)(Cc1cc2c(C)nccc2[nH]1)C(F)(F)F (stereo not shown) [1,1,1-Trifluoro-4-(4-methoxybiphenyl-3-yl)-4-methyl-2-(4-methyl-1H-pyrrolo[3,2-c]pyridin-2-ylmethyl)pentan-2-ol]	potent agonists
CC(C)(CC(O)(Cn1ccc2c1CCCC2=O)C(F)(F)F)c1cc(-c2cccnc2)ccc1O (stereo not shown) [1-[2-Hydroxy-4-(2-hydroxy-5-pyridin-3-ylphenyl)-4-methyl-2-trifluoromethylpentyl]-1,5,6,7-tetrahydroindol-4-one]	agonists
CC(C)Oc1cc2cc(CC(O)(CC(C)(C)c3cc(-c4ccccc4)cc4c3OCC4)C(F)(F)F)[nH]c2cn1 (stereo not shown) [1,1,1-Trifluoro-2-(5-isopropoxy-1H-pyrrolo[2,3-c]pyridin-2-ylmethyl)-4-methyl-4-(5-phenyl-2,3-dihydrobenzofuran-7-yl)pentan-2-ol]	potent agonists
COc1ccc2[nH]c(CC(O)(CC(C)(C)c3cc(Cl)cc4c3OCC4)C(F)(F)F)cc2n1 (stereo not shown) [4-(5-Chloro-2,3-dihydrobenzofuran-7-yl)-1,1,1-trifluoro-2-(5-methoxy-1H-pyrrolo[3,2-b]pyridin-2-ylmethyl)-4-methylpentan-2-ol]	potent agonists
Cc1ccc(F)cc1C(C)(C)CC(O)(Cc1cc2nnccc2[nH]1)C(F)(F)F (stereo not shown) [1,1,1-Trifluoro-4-(5-fluoro-2-methylphenyl)4-methyl-2-(5H-pyrrolo[3,2-c]pyridazin-6-ylmethyl)pentan-2-ol]	potent agonists
CN1C=CC2=CC(CC(O)(CC(C)(C)c3cc(Cl)cc4c3OCC4)C(F)(F)F)NC2=C1 (stereo not shown) [4-(5-Chloro-2,3-dihydrobenzofuran-7-yl)-1,1,1-trifluoro-4-methyl-2-(6-methyl-1H-pyrrolo[2,3-c]pyridin-2-ylmethyl)pentan-2-ol]	potent agonists
COc1ccc(-c2ccccc2Cl)cc1C(C)(C)CC(O)(Cc1cc2cc(N3CCOCC3)ncc2[nH]1)C(F)(F)F (stereo not shown) [4-(2′-Chloro-4-methoxybiphenyl-3-yl)-1,1,1-trifluoro-4-methyl-2-(5-morpholin-4-yl-1H-pyrrolo[2,3-c]pyridin-2-ylmethyl)pentan-2-ol]	potent agonists
COc1ccc(F)cc1C(C)(C)CC(O)(Cc1cc2cnccc2[nH]1)C1CC1 (stereo not shown) [2-Cyclopropyl-4-(5-fluoro-2-methoxyphenyl)-4-methyl-1-(1H-pyrrolo[3,2-c]pyridin-2-yl)pentan-2-ol]	agonists
CC(CO)(CC(O)(Cc1ccnc2ccccc12)C(F)(F)F)c1ccccc1 (stereo not shown) [5,5,5-Trifluoro-2-methyl-2-phenyl-4-quinolin-4-ylmethylpentane-1,4-diol]	agonists
CC(C)(CC(O)(Cc1cc2cnccc2[nH]1)C(F)(F)F)c1cccc(CN2CCOCC2)c1 (stereo not shown) [1,1,1-Trifluoro-4-methyl-4-(3-morpholin-4-ylmethylphenyl)-2-(1H-pyrrolo[3,2-c]pyridin-2-ylmethyl)pentan-2-ol]	potent agonists
COc1ccc(-c2cccnc2)cc1C(C)(C)CC(O)(Cc1cc2c(C)cncc2[nH]1)C(F)(F)F (stereo not shown) [1,1,1-Trifluoro-4-(2-methoxy-5-pyridin-3-ylphenyl)-4-methyl-2-(4-methyl-1H-pyrrolo[2,3-c]pyridin-2-ylmethyl)pentan-2-ol]	potent agonists
CC(C)(CC(O)(Cc1cc2ccncc2[nH]1)C(F)(F)F)c1cc(Br)ccc1O (stereo not shown) [4-Bromo-2-[4,4,4-trifluoro-3-hydroxy-1,1-dimethyl-3-(1H-pyrrolo[2,3-c]pyridin-2-ylmethyl)butyl]phenol]	potent agonists
Cc1ccc(F)cc1C(C)(C)CC(O)(Cc1cc2cc(-c3ccccc3)ncc2[nH]1)C(C)C (stereo not shown) [5-(5-Fluoro-2-methylphenyl)-2,5-dimethyl-3-(5-phenyl-1H-pyrrolo[2,3-c]pyridin-2-ylmethyl)hexan-3-ol]	agonists
CC(C)Oc1cc2cc(CC(O)(CC(C)(C)c3cccc(F)c3)C(F)(F)F)[nH]c2cn1 (stereo not shown) [1,1,1-Trifluoro-4-(3-fluorophenyl)-2-(5-isopropoxy-1H-pyrrolo[2,3-c]pyridin-2-ylmethyl)-4-methylpentan-2-ol]	potent agonists
